Measurements taken from publication PMC12382740, “In Vitro and In Vivo Characterization of Novel Cathelicidin-Based Peptides with Antimicrobial Activity Against Pseudomonas aeruginosa” (Antibiotics, 2025).
Converted amounts (≈) assume the structure as drawn. Like-named read-outs stand apart in the source and are kept apart here. Square brackets hold non-standard residues; d marks the D form. Ends that are not written are not given here. Peptide text beside a SMILES is read from it.

Tests used:
human erythrocytes = assay: Hemolysis assay; format: cell-based; conditions: red cells of human, 4 h
Experimental: Commercially available human blood (IWB1K2E10ML, Innovative Research Inc., Novi, MI, USA) was used to produce a 50% haematocrit solution by mixing at 1:1 with PBS 1× (P5493, 1 L, Sigma, St. Louis, MO, USA). Three consecutive PBS 1× washes plus centrifugation at 2600 rpm for 10 min steps were performed. Finally, a 2% erythrocyte solution was prepared in PBS 1× and chilled on ice until used. Polypropylene plates were filled with 50 µL PBS 1× per well for the samples and 50 µL 2% Triton X-100 (TX-100, 9002-93-1, 100 mL, Sigma, St. Louis, MO, USA) for the hemolysis controls. A solution at 4× final concentration of the assay of each peptide was prepared in PBS and 50 µL were added to the first column of each plate, followed by serial dilutions in the microplate. Then, 50 µL of the 2% erythrocyte solution was added to each plate. […] controls consisted in a 1:1 mix of PBS 1× and erythrocytes at 2%. Plates were incubated at 37 °C for 4 h and then centrifuged at 1500 rpm for 5 min. Eighty µL were extracted from the supernatant of each well carefully and transferred to a polystyrene flat bottom plate for reading and read at 450 nm in an Epoch microplate spectrophotometer (Epoch™, BioTek, Winooski, VT, USA).
The therapeutic index is a widely accepted parameter to represent the specificity of antimicrobial peptides for prokaryotic versus eukaryotic cells. It is calculated by the ratio of HC50 (hemolytic activity) and MIC (antimicrobial activity); thus, larger values of therapeutic index indicate greater specificity for prokaryotic cells.

HeLa cells = format: cell-based, human; conditions: 24 h
Experimental: (§1) Cell viability assays were performed against HeLa and A549 cells. Cells were seeded in Corning 96-well microplates at 2 × 10^3 cells/well and 5 × 10^3 cells/well and incubated for 24 h at 37 °C. Then, cells were treated with peptides dissolved in Dulbecco’s Modified Eagle’s Medium for 24 h; peptide concentration range 0.1–100 µM. The peptide solution was then removed, and fresh medium was added to the cells. Finally, 50 µL of activated-XTT solution was added and incubated for 4 h at 37 °C. A PowerWave X reader (BioTek, Winooski, VT, USA) was used to measure absorbance at 450 nm. Cell viability was calculated through the ratio of the absorbance of peptide-treated cells over the absorbance of untreated cells. Triplicates were run for each experiment.

A549 cells = format: cell-based, human; conditions: 24 h
Experimental: as §1

[1] = In vivo toxicity study, topical; design: species or system BALB/C mice; conditions: for mice final weight (median ± SD): after 7 days of observation after the treatment; for dermal responses and body weight loss / indicative signs of acute toxicity: healthy female BALB/C mice; for dermal responses and body weight loss: during the application; for indicative signs of acute toxicity: topical, efficacy dosage, 7 days observation
Experimental: Immunocompetent female BALB/C mice weighing 20 g (7–9 weeks old) were used (Charles River laboratories, St-Germain-Nuelles, France). Animals were murine pathogen-free and were assessed for genetic authenticity. The study followed the Guide for the Care and Use of Laboratory Animals. The experiments followed the 2010/63/EU directive on the protection of animals used for scientific research. Experiments were approved by the Committee on the Ethics of Animal Experiments of the Virgen del Rocío University Hospital and the Andalusian Ministry of Agricultura, Pesca, Agua y Desarrollo Rural, Junta de Andalucía, Sevilla, Spain (11-09-15-322).
CAP-18 and D-CAP-18 peptides were evaluated in five healthy female BALB/C mice at the dosage and regimen schedule to be used in the efficacy studies. The following indicative signs of acute toxicity were assessed during seven days: reduced water (dehydration)/food intake, isolation, self-mutilation, tremors/spasms, dyspnea, physical activity (increased/reduced), chromo-dacryorrhea, dermal responses, including erythema/oedema/redness/discoloration/necrosis), muscle stiffness, piloerection, teeth grinding, and weight loss.

[2] = system: P. aeruginosa Strain 121007; format: cell-based, Pseudomonas aeruginosa
Experimental: (§2) The antimicrobial activity of the peptides was tested against a collection of P. aeruginosa, selected by their resistance or susceptibility to colistin and/or classified as MDR strains. The origin of the strains was either clinical, relevant to the current clinical situation, or commercial strains belonging to the American Type Culture Collection (ATCC, Manassas, VA, USA), which complemented the collection for comparison and control. For the initial activity screening of the 17 peptides, we tested them against P. aeruginosa ATCC strains 1211007 and 1211101. Both strains are multidrug-resistant; however, the key difference is that strain 1211007 is susceptible to colistin, whereas strain 1211101 is resistant to colistin.
(§3) Minimum Inhibitory Concentration (MIC) of the antimicrobial agents against bacterial strains was obtained through broth microdilution assays following a protocol based on the Clinical & Laboratory Standards Institute’s guidelines. Modifications regarding microplate material and broth were included when testing the peptides’ activity and are detailed below. Colistin MICs were obtained following recommendations of the joint CLSI-EUCAST Polymyxin Breakpoints Working Group using Cation Adjusted Mueller-Hinton Broth (90922, 500 g Sigma-Aldrich®, St. Louis, MO, USA), and strains Escherichia coli 13846 (mcr-1 positive) and P. aeruginosa ATCC 27853 were used as quality controls in all assays. Bacteria were cultured in Columbia Agar plates (Columbia Agar with 5% Sheep Blood 90 mm Stacker plates, Becton Dickinson, Franklin Lakes, NJ, USA) and incubated overnight at 37 °C. Polypropylene round-bottomed 96-well plates (-96-well Polypropylene Storage Microplates, 267334, Thermo Fischer Scientific, Waltham, MA, USA) were used to prevent peptide binding to plate walls. AST broth (BD Phoenix™ AST broth, 8 mL, 246003, Becton Dickinson, Franklin Lakes, NJ, USA) was used when testing the peptides’ activity. […] Three biological and technical replicates were performed per strain.

[3] = system: P. aeruginosa strain panel; format: cell-based, Pseudomonas aeruginosa; conditions: strain panel
Experimental: as §2, §3

[4] = system: P. aeruginosa Strain ATCC 121110; format: cell-based, Pseudomonas aeruginosa
Experimental: as §2, §3

[5] = system: Colistin-Resistant P. aeruginosa; format: cell-based, Pseudomonas aeruginosa; conditions: Colistin-Resistant
Experimental: as §2, §3

[6] = system: Colistin Susceptible P. aeruginosa; format: cell-based, Pseudomonas aeruginosa; conditions: Colistin Susceptible
Experimental: as §2, §3

[7] = Strain ATCC 121110, value in brackets
[8] = Strain 121007, value in brackets

CC[C@@H](C)[C@@H](NC(=O)[C@@H](CCCCN)NC(=O)[C@@H](CCCCN)NC(=O)[C@@H](CC(C)C)NC(=O)[C@@H](CCCCN)NC(=O)[C@@H](CCC(=O)O)NC(=O)[C@@H](CCCCN)NC(=O)[C@H](NC(=O)[C@@H](CCCCN)NC(=O)[C@@H](CC(N)=O)NC(=O)[C@@H](CCCNC(=N)N)NC(=O)[C@@H](Cc1ccccc1)NC(=O)[C@@H](CCCCN)NC(=O)[C@@H](CCCNC(=N)N)NC(=O)[C@@H](CC(C)C)NC(=O)[C@@H](CCCNC(=N)N)NC(=O)[C@@H](CCCCN)NC(=O)[C@@H](CCCNC(=N)N)NC(=O)[C@@H](CC(C)C)NC(=O)CN)[C@H](C)CC)C(=O)NCC(=O)N[C@H](CCC(N)=O)C(=O)N[C@H](CCCCN)C(=O)N[C@@H](C(=O)N[C@H](CCC(N)=O)C(=O)NCC(=O)N[C@H](CC(C)C)C(=O)N[C@H](CC(C)C)C(=O)N1CCC[C@@H]1C(=O)N[C@H](CCCCN)C(=O)N[C@H](CC(C)C)C(=O)N[C@H](C)C(=O)N1CCC[C@@H]1C(=O)N[C@H](CCCNC(=N)N)C(=O)N[C@@H](C(=O)N[C@H](CC(=O)O)C(=O)N[C@H](Cc1ccc(O)cc1)C(=O)O)[C@H](C)O)[C@H](C)CC [D-CAP-18, Glrkrlrkfrnkikeklkkigqkiqgllpklaprtdy] (H-G[dL][dR][dK][dR][dL][dR][dK][dF][dR][dN][dK][dI][dK][dE][dK][dL][dK][dK][dI]G[dQ][dK][dI][dQ]G[dL][dL][dP][dK][dL][dA][dP][dR][dT][dD][dY]-OH) showed an IC50 (human erythrocytes) of 62 µM, an IC50 (HeLa cells) of 2.11 µM and an IC50 (A549 cells) of 2.09 µM. For the same compound, the “mice final weight (median ± SD)” value [1] was 18.9 ± 0.30 grams, the “dermal responses and body weight loss” value [1] was “no dermal responses, including erythema/oedema, nor body weight loss were observed” and the “indicative signs of acute toxicity” value [1] was “None of the 11 indicative signs of acute toxicity were observed”. It also gave an MIC ([2]; Strain 121007) of 2 µg/mL, an MIC50 [3] of 1 µg/mL (≈ 0.226 µM) and an MIC90 [3] of 2 µg/mL (≈ 0.451 µM).

For CC[C@@H](C)[C@@H](NC(=O)CNC(=O)[C@@H](CCC(N)=O)NC(=O)[C@@H](CCCCN)NC(=O)[C@H](NC(=O)[C@@H](CCC(N)=O)NC(=O)CNC(=O)[C@@H](CC(C)C)NC(=O)[C@@H](CC(C)C)NC(=O)[C@H]1CCCN1C(=O)[C@@H](CCCCN)NC(=O)[C@@H](CC(C)C)NC(=O)[C@@H](C)NC(=O)[C@H]1CCCN1C(=O)[C@@H](CCCNC(=N)N)NC(=O)[C@H](NC(=O)[C@@H](CC(=O)O)NC(=O)[C@H](N)Cc1ccc(O)cc1)[C@H](C)O)[C@H](C)CC)C(=O)N[C@H](CCCCN)C(=O)N[C@H](CCCCN)C(=O)N[C@H](CC(C)C)C(=O)N[C@H](CCCCN)C(=O)N[C@H](CCC(=O)O)C(=O)N[C@H](CCCCN)C(=O)N[C@@H](C(=O)N[C@H](CCCCN)C(=O)N[C@H](CC(N)=O)C(=O)N[C@H](CCCNC(=N)N)C(=O)N[C@H](Cc1ccccc1)C(=O)N[C@H](CCCCN)C(=O)N[C@H](CCCNC(=N)N)C(=O)N[C@H](CC(C)C)C(=O)N[C@H](CCCNC(=N)N)C(=O)N[C@H](CCCCN)C(=O)N[C@H](CCCNC(=N)N)C(=O)N[C@H](CC(C)C)C(=O)NCC(=O)O)[C@H](C)CC [R-CAP-18, Ydtrpalkpllgqikqgikklkekiknrfkrlrkrlg] (H-[dY][dD][dT][dR][dP][dA][dL][dK][dP][dL][dL]G[dQ][dI][dK][dQ]G[dI][dK][dK][dL][dK][dE][dK][dI][dK][dN][dR][dF][dK][dR][dL][dR][dK][dR][dL]G-OH), the MIC ([4]; Strain ATCC 121110) was 32 µg/mL, the MIC [4, 7] was 7.2 µM and the MIC ([2]; Strain 121007) was 2 µg/mL. For the same compound, the MIC [2, 8] was 0.4 µM.

For CC[C@@H](C)[C@@H](NC(=O)CNC(=O)[C@@H](CCC(N)=O)NC(=O)[C@@H](CCCCN)NC(=O)[C@H](NC(=O)[C@@H](CCC(N)=O)NC(=O)CNC(=O)[C@@H](CC(C)C)NC(=O)[C@@H](CC(C)C)NC(=O)[C@H]1CCCN1C(=O)[C@@H](CCCCN)NC(=O)[C@H](N)CC(C)C)[C@H](C)CC)C(=O)N[C@H](CCCCN)C(=O)N[C@H](CCCCN)C(=O)N[C@H](CC(C)C)C(=O)N[C@H](CCCCN)C(=O)N[C@H](CCC(=O)O)C(=O)N[C@H](CCCCN)C(=O)N[C@@H](C(=O)N[C@H](CCCCN)C(=O)N[C@H](CC(N)=O)C(=O)N[C@H](CCCNC(=N)N)C(=O)N[C@H](Cc1ccccc1)C(=O)N[C@H](CCCCN)C(=O)N[C@H](CCCNC(=N)N)C(=O)N[C@H](CC(C)C)C(=O)N[C@H](CCCNC(=N)N)C(=O)N[C@H](CCCCN)C(=O)N[C@H](CCCNC(=N)N)C(=O)N[C@H](CC(C)C)C(=O)NCC(=O)O)[C@H](C)CC [R-CAP-18_31, Lkpllgqikqgikklkekiknrfkrlrkrlg] (H-[dL][dK][dP][dL][dL]G[dQ][dI][dK][dQ]G[dI][dK][dK][dL][dK][dE][dK][dI][dK][dN][dR][dF][dK][dR][dL][dR][dK][dR][dL]G-OH), the MIC ([4]; Strain ATCC 121110) was 4 µg/mL, the MIC [4, 7] was 1.1 µM and the MIC ([2]; Strain 121007) was 0.5 µg/mL. It also gave an MIC [2, 8] of 0.1 µM.

“GLRKRLRKFRNKIKEKLKKIGQKIQGLLPKLAPRTDY [CAP-18]” gave an IC50 (human erythrocytes) of 35.7 µM, an IC50 (HeLa cells) of 9.12 µM and an IC50 (A549 cells) of 0.87 µM. The “mice final weight (median ± SD)” value [1] was 19.1 ± 0.55 grams, the “dermal responses and body weight loss” value [1] was “no dermal responses, including erythema/oedema, nor body weight loss were observed” and the “indicative signs of acute toxicity” value [1] was “None of the 11 indicative signs of acute toxicity were observed”. The MIC ([4]; ATCC 121110) was less than 0.125 µg/mL, the MIC50 [3] was 0.5 µg/mL and the MIC90 [3] was 4 µg/mL. For the same compound, the MIC [5] was 4 µg/mL and the MIC [6] was 8 µg/mL.

With H-FRNKIKEKLKKIGQKIQG-OH [CAP-18_18] the MIC ([4]; ATCC 121110) was greater than 64 µg/mL, the MIC [4, 7] was greater than 30 µM and the MIC ([2]; Strain 121007) was greater than 64 µg/mL. For the same compound, the MIC [2, 8] was greater than 30 µM.

With “H-FRNKIKEKLKKIGQKIQGLLPKL-OH [CAP-18_23]” the MIC ([4]; ATCC 121110) was greater than 32 µg/mL, the MIC [4, 7] was greater than 12 µM and the MIC ([2]; Strain 121007) was greater than 64 µg/mL. The MIC [2, 8] was greater than 24 µM.

With H-GLRKRLRKFRNKIKEKLKKIG-OH [CAP-18_21] the MIC ([4]; ATCC 121110) was 32 µg/mL, the MIC [4, 7] was 12 µM and the MIC ([2]; Strain 121007) was 32 µg/mL. It also gave an MIC [2, 8] of 12 µM.

For H-IKEKLKKIGQKIQG-OH [CAP-18_14], the MIC ([4]; ATCC 121110) was greater than 64 µg/mL, the MIC [4, 7] was greater than 40 µM and the MIC ([2]; Strain 121007) was greater than 64 µg/mL.

In the case of H-IKEKLKKIGQKIQGLLPKL-OH [CAP-18_19], the MIC ([4]; ATCC 121110) is reported as greater than 64 µg/mL, the MIC [4, 7] is reported as greater than 29 µM and the MIC ([2]; Strain 121007) is reported as greater than 64 µg/mL. It also gave an MIC [2, 8] greater than 29 µM.
